Results reported in US7718406B2, “Substrates for TAFI (A)” (DSM IP Assets B.V., priority 2002, dated 2010).

Assays:
TAFIa = biological target: T1, TAFIa (Homo sapiens, UniProt Q96IY4); experiment: Splitting of thiaarginine and thialysine substrates by TAFIa (Ellman's reagent, absorption at 405-412 nm); assay type: biochemical; settings: substrate final concentration 174 μM; TAFIa final concentration 17 μg/ml; RT, 10 min; pH 7.4
T1 construct: purchased Enzyme Research Laboratory
T1 sequence (Q96IY4 115-423): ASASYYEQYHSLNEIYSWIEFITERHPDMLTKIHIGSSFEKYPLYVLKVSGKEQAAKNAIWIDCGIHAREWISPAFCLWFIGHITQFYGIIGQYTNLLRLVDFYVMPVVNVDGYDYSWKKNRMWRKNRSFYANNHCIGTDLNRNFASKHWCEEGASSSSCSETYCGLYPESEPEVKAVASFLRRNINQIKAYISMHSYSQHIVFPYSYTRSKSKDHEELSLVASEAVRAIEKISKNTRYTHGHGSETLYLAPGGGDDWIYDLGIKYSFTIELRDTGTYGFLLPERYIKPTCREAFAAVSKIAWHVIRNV
Method: Principle: TAFIa is determined as shown in Scheme 1. In a first step, the substrate is hydrolyzed by TAFIa in such a way that a thioamino acid (thiaarginine or thialysine) is released. These instable intermediates are rapidly decomposed into 2-mercaptoethylguanidine or 3-mercaptopropylamine, respectively. These mercapto compounds react with Ellman's reagent (5,5′-dithio-bis-(2-nitrobenzoic acid)), thereby releasing the strongly yellow 3-carboxy-4-nitrothiophenol that can be measured using a spectrophotometer at 405-412 nm. The free thiol content measured is directly proportional to the quantity of substrate hydrolyzed by TAFIa and thereby allows a quantitative analysis of the enzyme activity.
Enzyme assay: The enzyme activity is measured at room temperature by using a 10 mM substrate stock solution in DMSO. TAFI of human origin can be obtained in a stock solution of 360 μg/ml from Enzyme Research Laboratory or over blood plasma. Activation of TAFI to TAFIa occurred with thrombin (2.7 U/ml), the activation of which was produced with 30 μg of thrombomodulin. Excessive thrombin activity was eliminated by adding the synthetic inhibitor NAPAP. The measurement was performed on microtiter plates.
The absorption increase at 405-412 nm was recorded for 10 minutes.
in buffer (20 mM HEPES, 5 mM CaCl2, 0.01% Tween 80; pH 7.4) • incubate for 5 min at 25° C. Measurement:
(§1) • measure for 10 min at RT Results: • Splitting of thiaarginine and thialysine substrates (final concentration 174 μM) by TAFIa (final concentration 17 μg/ml) • in brackets the value for carboxypeptidase B • Substances of comparison A and B from Bull. Korean. Chem. Soc. 1998, 19(2), 189-193 • ΔE=Extinction variation at 405 nm

carboxypeptidase B = biological target: T2, carboxypeptidase B (Homo sapiens, UniProt P15086); experiment: Splitting of thiaarginine and thialysine substrates by carboxypeptidase B; assay type: biochemical; settings: substrate final concentration 174 μM
T2 sequence (P15086 111-417): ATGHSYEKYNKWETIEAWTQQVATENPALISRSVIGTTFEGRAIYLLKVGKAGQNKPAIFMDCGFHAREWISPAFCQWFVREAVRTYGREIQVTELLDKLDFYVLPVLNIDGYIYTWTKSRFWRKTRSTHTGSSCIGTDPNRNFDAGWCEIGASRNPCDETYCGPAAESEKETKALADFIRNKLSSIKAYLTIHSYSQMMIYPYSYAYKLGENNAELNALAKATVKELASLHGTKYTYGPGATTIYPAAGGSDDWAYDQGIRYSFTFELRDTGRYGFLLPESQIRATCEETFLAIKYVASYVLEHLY
Method: [drawing 2] have been described as substrates for carboxypeptidase B (Bull. Korean. Chem. Soc. 1998, 19(2), 189-193). […] Detection of CPB by means of compound A is carried out according to the following Scheme 1.
as §1

| Molecule | ΔE/min (extinction variation at 405 nm), splitting by TAFIa (TAFIa) | ΔE/min (extinction variation at 405 nm), value in brackets for carboxypeptidase B (carboxypeptidase B) |
| --- | --- | --- |
| Cl.N=C(N)NCCSC(NC(=O)[C@H](CCCCNC(=O)OCc1ccccc1)NC(=O)c1ccccc1)C(=O)O (stereo partly drawn) [No. 4269, benzoyl-(L)-lysyl-(ε-benzyloxycarbonyl)-α-(D,L)-(2-guanidinoethylthio)-glycine hydrochloride salt] | 0.108 ΔE/min | (0.018) ΔE/min |
| Bz-P-K(Boc)-G(GUS)-OH × TFA [No. 4300] | 0.012 ΔE/min | (0.072) ΔE/min |
| Boc-K(Z)-G(α-SPrA)-OH × TFA [No. 4341] | 0.054 ΔE/min | – |
| Bz-V-G(GUS)-OH × TFA [No. 4334] | 0.034 ΔE/min | – |
| NCCCSC(NC(=O)[C@H](CCCCNC(=O)OCc1ccccc1)NC(=O)c1ccccc1)C(=O)O.O=C(O)C(F)(F)F (stereo partly drawn) [No. 4339, benzoyl-(L)-lysyl-(ε-benzyloxycarbonyl)-α-(D,L)-(3-aminopropylthio)-glycine trifluoracetic acid salt] | 0.055 ΔE/min | – |
| Boc-K(Tos)-G(GUS)-OH × HCl [No. 4273] | 0.014 ΔE/min | (0.048) ΔE/min |
| Z-A-K(Boc)-G(GUS)-OH × HCl [No. 4302] | 0.042 ΔE/min | (0.059) ΔE/min |
| Boc-K(Z)-G(GUS)-OH × TFA [No. 4275] | 0.041 ΔE/min | (0.028) ΔE/min |
| Bz-V-G(α-SPrA)-OH × TFA [No. 4336] | 0.053 ΔE/min | – |
| Boc-F-K(Boc)-G(GUS)-OH × HCl [No. 4298] | 0.043 ΔE/min | (0.034) ΔE/min |
